The record followed here is ChEMBL document CHEMBL3507680, “University of Dundee, Gates Library screen for HepG2 cell viability”.

The data set can be described thus: Human HepG2 cell viability assay in 384 well format. It counts as toxicity, cell-based. Set-up: dose 125 nL, time 70.5 hour; cytotoxicity at 70.5 h: concentration not given beside the values. The settings on record: HepG2 cells, read-out: Inhibition.
Take `CC(C(=O)N1CCOCC1)n1cc(Br)cn1` (stereo unspecified): the cytotoxicity at 70.5 h stood at 12.3%.
As for `COCCN1CCCC(O)(CN2CCN(c3ccncc3C)CC2)C1=O` (stereo unspecified), the figure is 5.87%.
As to `COCC1CN(Cc2ccc3c(c2)OCO3)Cc2ncn(C)c21` (stereo unspecified), the cytotoxicity at 70.5 h is -12.8%.
For `Cc1cnn(CC2CN(Cc3nccn3CC(F)(F)F)CCO2)c1` (stereo unspecified) the value was 26.3%; for `N#Cc1ccc(N2CCC(OC3CCOCC3)CC2)cc1Cl`, 1.95%; for `COCc1nc(CN2CCOC(CNc3cccnn3)C2)cs1` (stereo unspecified), -11.6%.
With `COc1cc(-c2cc(-c3ccn(C)c3)nc(N)c2C#N)cc(OC)c1O`, the cytotoxicity at 70.5 h is -1.48%.
As for `CN(Cc1cccc(O)c1)CC1CCCN(CCc2ccc(Cl)cc2)C1` (stereo unspecified), the figure is 10.2%.
As for `CCNC(=O)C1CCCN1S(=O)(=O)c1sc(=O)[nH]c1C` (stereo unspecified), the figure is -4.2%.
Regarding `O=C(c1cc2ccccc2[nH]1)N1CCC(Nc2cccnn2)CC1`, the cytotoxicity at 70.5 h was -6.88%.
For `CN1CCCCC1c1ccc(-n2ccnc2)nc1` (stereo unspecified) the value was -2.08%; for `Cc1ncn(CCNC(=O)Nc2ccc(OC(F)(F)F)cc2)c(=O)c1C`, -3.32%; for `Cc1ccc(CN2Cc3ccnn3CC(COCc3cccnc3)C2)o1` (stereo unspecified), -5.79%.
For the molecule `CN(C)CCOCc1cncc2c1CCN(C1CCOC1)C2` (stereo unspecified), the cytotoxicity at 70.5 h is -4.13%.
For `CN(C)C(=O)COCC1CN(S(C)(=O)=O)Cc2ncn(C)c21` (stereo unspecified) the value was -6.55%; for `CC(Cc1ccco1)NC(=O)Nc1ccc(N2CCOCC2)nc1` (stereo unspecified), -4.87%; for `c1cncc(COCc2nnc3n2CCN(CC2CC2)C3)c1`, 0.791%.
For `COCCCC1(C(=O)O)CCCN(Cc2cc3c(cc2C)OCCO3)C1` (stereo unspecified) the value was -8.65%; for `CS(=O)(=O)c1cc(NC(=O)COc2ccccc2F)cc(C(=O)O)c1`, -2.84%; for `CN1CCN(Cc2c(-c3ccco3)[nH]c3ncccc23)CC1`, -6.17%.
Consider `CS(=O)(=O)N1CCCN(CCCSCc2ccccc2)CC1`, for which the cytotoxicity at 70.5 h is -8.27%.
With `Cn1ccc(C(=O)NCCOc2ccc(C(C)(C)C)cc2)cc1=O`, the cytotoxicity at 70.5 h is -4.21%.
Regarding `CCN1C(=O)CC(c2cnn(C)c2)C12CCN(C(=O)c1ccoc1)CC2` (stereo unspecified), the cytotoxicity at 70.5 h is -0.434%.
As for `Cc1nc(-c2cccc(N3CCC(N[C@@H]4CCOC4)CC3)c2)cs1`, the figure is 0.567%.
As for `O=C1c2cnc(N3CCCC3)nc2CN1CCc1ccc(Cl)cc1`, the figure is -6.15%; as for `COc1cccc(CC(C)NCC(=O)Nc2ccccc2C)c1` (stereo unspecified), -0.681%.
For `CCN(CC1CCCO1)C(=O)Nc1cc(OC)c(OC)cc1C` (stereo unspecified) the value was -14.3%.
For `CN1CCc2c(C#N)c(NCc3ccco3)n3cnnc3c2C1`, the cytotoxicity at 70.5 h was -7.42%.
Take `Cn1cnc2c1CCN(Cc1csc(C3CCCC3)n1)C2`: the cytotoxicity at 70.5 h is -9.44%.
As for `CN1CCN(C2COC3(CCN(Cc4ccc(F)cc4)CC3)C2)CC1` (stereo unspecified), the figure is -11.8%.
As for `CCN(C(=O)CNc1cc(C)c(F)cc1C(N)=O)C1CC1`, the cytotoxicity at 70.5 h came out at 0.591%.
As to `COC(=O)c1ccc(-c2cc(C(F)(F)F)cc(N(C)C)n2)cc1`, the cytotoxicity at 70.5 h was -6.66%.
With `Cc1cc(C)c(OCC(=O)NS(=O)(=O)c2cccnc2)c(C)c1`, the cytotoxicity at 70.5 h was -3.3%.
On to `Cn1nc(N2CCCC(C(=O)Nc3nc4ccccc4[nH]3)C2)ccc1=O` (stereo unspecified), for which the cytotoxicity at 70.5 h is -10%.
For `Cn1ccnc1CN1CCN2C[C@H](Oc3cccc(F)c3)C[C@H]2C1` the value was 11.9%.
As for `COc1ccncc1NC(=O)c1[nH]nc(C(C)C)c1Br`, the figure is -3.93%.
`OCC1(O)CCN(c2ncccc2C(F)(F)F)CC1`: the cytotoxicity at 70.5 h is -0.128%.
`CCn1cc(Cl)c(C(=O)NCc2cnn(C)c2)n1`: the cytotoxicity at 70.5 h is -0.0278%.
Turning to `CC1=CC[C@@H]2CN(C(=O)c3ccc(-c4nnn(C)n4)cc3)C[C@@H]2C1`, the cytotoxicity at 70.5 h was 6%.
For `Cc1ccnc(C2CN(c3ccnc(C)n3)C2)n1` the value was -5.49%; for `COc1nn(C)c2c1CCCN(S(=O)(=O)c1cccc(C)c1)C2`, -4.74%; for `Cc1cnn(CC2CCCN2c2ncnc3c2CCC3)c1` (stereo unspecified), 13.3%.
As for `CC(C)C[C@@H]1N[C@H](C(=O)NCC2CC2)Cc2c[nH]c3cccc1c23`, the figure is 0.485%.
As for `CCn1c(CN(C)C)nnc1C1CCN(Cc2ccc(C)s2)CC1`, the figure is -2.28%; as for `CCc1ccccc1CN1CC[C@@H](NC(=O)c2cccnc2)[C@H](O)C1`, 1.15%; as for `O=C(COc1coc(CN2CCCCC2)cc1=O)Nc1ccccc1Cl`, -9.78%.
Consider `CCc1ncc2c(n1)CN(Cc1cc(C)on1)CC2`, for which the cytotoxicity at 70.5 h was -106%.
As for `Cc1ccc2cc(CN(C)Cc3ncc[nH]3)c(=O)[nH]c2c1`, the figure is 26.6%; as for `N#CC1COCCN1C(=O)c1ccc2[nH]cnc2c1` (stereo unspecified), -1.24%.
`c1ccc2c(Cc3nnc([C@H]4CCN(C5CCOCC5)C4)o3)c[nH]c2c1`: the cytotoxicity at 70.5 h is -0.535%.
Consider `O=C(Cc1ccc2c(c1)CCO2)N1CCCC(n2cccn2)C1` (stereo unspecified), for which the cytotoxicity at 70.5 h was -12.1%.
For `O=C1CC(NCc2cnc(-c3cccs3)nc2)CN1c1ccccc1` (stereo unspecified) the value was -2.68%; for `Cc1nc(CN2C(=O)CCC23CCN(Cc2cccn2C)CC3)cs1`, -9.94%; for `COc1ccccc1CC(=O)N1C[C@H]2CC[C@@H]1CN(Cc1cscn1)C2`, -12.1%.
As for `O=C(Nc1cccc(C2SCCS2)c1)C1CCCN1c1nccs1` (stereo unspecified), the figure is 0.117%; as for `COc1cccc(CNCc2c(C(C)C)nn(C)c2N(C)C)c1`, 1.8%.
For `Cc1cc(CNC(=O)NC(C)c2ccccc2)no1` (stereo unspecified) the value was 0.144%; for `O=C(c1ccccc1)N1CCN(CC2CCOc3ccccc3C2)CC1` (stereo unspecified), -2.76%.
Consider `CCc1nccn1C1CCCN(C(=O)c2ccc(C(=O)NC)nc2)C1` (stereo unspecified), for which the cytotoxicity at 70.5 h is -5.35%.
For `Cc1cc(C)n(C2CN(Cc3noc(-c4ccccc4)n3)C2)n1` the value was -4.76%; for `CC(C)N1Cc2cccc(NCC(=O)N(C)C)c2C1`, -2.57%; for `CCCC(=O)N(C)CC(=O)Nc1ccc(Br)cn1`, -2.34%.
Consider `CCCN(C)CC1CCN(c2ncc(Br)cn2)C1` (stereo unspecified), for which the cytotoxicity at 70.5 h stood at 2.13%.
As for `O=C(c1cc2c(s1)CCOC2)N1CCCC1Cn1cccn1` (stereo unspecified), the figure is -8.49%.
Regarding `CN1CCN(C(=O)c2nc3c(s2)CCCN3C(=O)C2CC2)CC1`, the cytotoxicity at 70.5 h was -3.93%.
As for `COc1ccc2nnc(CCCC(=O)NCc3ccccc3OC)n2n1`, the figure is -15.5%.
As for `CC(=O)N1CCN(C(=O)CCCc2nnc(-c3ccccc3)o2)CC1`, the cytotoxicity at 70.5 h is -2.32%.
For `NC(=O)CC1CCCN(C(=O)NCC2(c3cccs3)CCCC2)C1` (stereo unspecified) the value was -0.84%; for `CC(O)CN1CCC(CNCCOCC(F)(F)F)CC1` (stereo unspecified), -7.95%.
As for `Cc1cccc(C)c1OC1CN(C(=O)C2CC(=O)N(C(C)(C)C)C2)C1` (stereo unspecified), the figure is 18.1%.
Consider `CCc1nnc2n1CCN(C(=O)CCc1ccc(C)c(Cl)c1)C2`, for which the cytotoxicity at 70.5 h was -1.97%.
